Results from US8859584B2, “TRPV1 antagonists” (AbbVie Inc., priority 2011, dated 2014).

What was measured:
human TRPV1 [1] = target: T1, human TRPV1 (Homo sapiens, UniProt Q8NER1); experiment: Acid Activation Assay (pH 5.0, FLIPR intracellular Ca2+, recombinant HEK293 cells); type: cell-based; details: percentage of maximal pH 5.0-induced response remaining; HEK293 hTRPV1; max concentration 37.5 μM
T1 construct: expressed in transfected cells
Procedure, shortened: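 HEK293 cells stably expressing recombinant hTRPV1 were loaded with calcium dye for 90-120 min at 25° C and pre-treated with compound for 3 min before a pH 5.0 (DPBS/MES) challenge. Peak FLIPR fluorescence over baseline is given as percentage of the maximal pH 5.0-induced response.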

human TRPV1 [2] = target: T1, human TRPV1; experiment: Capsaicin Activation Assay (FLIPR intracellular Ca2+, recombinant HEK293 cells); type: cell-based; details: recombinant HEK293 cells expressing hTRPV1; 50 nM capsaicin; read-out: human TRPV1 capsaicin IC50

T1 sequence (Q8NER1 whole entry): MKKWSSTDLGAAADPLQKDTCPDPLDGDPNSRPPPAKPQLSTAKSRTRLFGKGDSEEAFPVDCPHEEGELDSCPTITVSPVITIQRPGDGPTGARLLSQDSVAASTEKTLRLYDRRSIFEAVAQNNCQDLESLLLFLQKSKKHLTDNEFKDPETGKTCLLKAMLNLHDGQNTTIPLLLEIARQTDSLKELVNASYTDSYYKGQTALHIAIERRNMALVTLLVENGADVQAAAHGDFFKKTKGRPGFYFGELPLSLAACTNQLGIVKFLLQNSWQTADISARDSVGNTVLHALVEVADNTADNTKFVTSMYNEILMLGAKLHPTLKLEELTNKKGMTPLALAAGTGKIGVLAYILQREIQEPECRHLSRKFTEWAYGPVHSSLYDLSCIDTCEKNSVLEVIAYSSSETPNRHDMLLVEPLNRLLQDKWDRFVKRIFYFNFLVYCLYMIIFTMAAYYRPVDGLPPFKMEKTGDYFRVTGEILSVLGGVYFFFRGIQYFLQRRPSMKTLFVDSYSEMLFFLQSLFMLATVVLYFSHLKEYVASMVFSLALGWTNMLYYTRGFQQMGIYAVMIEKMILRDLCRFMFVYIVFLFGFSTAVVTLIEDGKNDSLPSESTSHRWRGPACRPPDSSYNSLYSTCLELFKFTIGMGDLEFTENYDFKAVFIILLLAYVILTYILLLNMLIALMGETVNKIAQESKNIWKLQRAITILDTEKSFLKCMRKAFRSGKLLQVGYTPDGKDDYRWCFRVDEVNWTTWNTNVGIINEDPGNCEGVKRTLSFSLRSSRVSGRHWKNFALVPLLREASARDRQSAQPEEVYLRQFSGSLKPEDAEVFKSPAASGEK

| Compound | human TRPV1 H+ (max % remain) (human TRPV1 [1]) [%] | IC50 (human TRPV1 [2]) [nM] |
| --- | --- | --- |
| O=C(Nc1cccc2c1C[C@@H](O)C2)N[C@H]1CCOc2cc(OC(F)(F)F)ccc21 [Example 94, 1-[(2S)-2-hydroxy-2,3-dihydro-1H-inden-4-yl]-3-[(4S)-7-(trifluoromethoxy)-3,4-dihydro-2H-chromen-4-yl]urea] | 47 | 5900 |
| CCCC1(CCC)C[C@@H](NC(=O)Nc2cccc3c2C[C@H](O)C3)c2cc(F)ccc2O1 [Example 56, 1-[(4R)-6-fluoro-2,2-dipropyl-3,4-dihydro-2H-chromen-4-yl]-3-[(2R)-2-hydroxy-2,3-dihydro-1H-inden-4-yl]urea] | 96 | 46 |
| O=C(Nc1cccc2c1C[C@H](O)C2)N[C@@H]1CC(CF)(CF)Oc2ccccc21 [Example 69, 1-[(4R)-2,2-bis(fluoromethyl)-3,4-dihydro-2H-chromen-4-yl]-3-[(2R)-2-hydroxy-2,3-dihydro-1H-inden-4-yl]urea] | 91 | 400 |
| O=C(Nc1cccc2c1CC(O)C2)NC1CC(c2ccccc2)Oc2ccccc21 (stereo not shown) [Example 118, 1-(2-hydroxy-2,3-dihydro-1H-inden-4-yl)-3-(2-phenyl-3,4-dihydro-2H-chromen-4-yl)urea] | 67 | 61 |
| CC1(C)C[C@@H](NC(=O)Nc2cccc3c2C[C@H](O)C3)c2cccc(OC(F)(F)F)c2O1 [Example 19, 1-[(4R)-2,2-dimethyl-8-(trifluoromethoxy)-3,4-dihydro-2H-chromen-4-yl]-3-[(2R)-2-hydroxy-2,3-dihydro-1H-inden-4-yl]urea] | 71 | 14 |
| O=C(Nc1cccc2c1C[C@H](O)C2)N[C@@H]1CCOc2c1cccc2C(F)(F)F [Example 18, 1-[(2R)-2-hydroxy-2,3-dihydro-1H-inden-4-yl]-3-[(4R)-8-(trifluoromethyl)-3,4-dihydro-2H-chromen-4-yl]urea] | 58 | 26 |
| C[C@]1(C(F)F)C[C@@H](NC(=O)Nc2cccc3c2C[C@H](O)C3)c2ccccc2O1 [Example 127, 1-[(2R,4R)-2-(difluoromethyl)-2-methyl-3,4-dihydro-2H-chromen-4-yl]-3-[(2R)-2-hydroxy-2,3-dihydro-1H-inden-4-yl]urea] | 62 | 260 |
| CC1(C)C[C@@H](NC(=O)Nc2ccc(F)c3c2C[C@H](O)C3)c2ccc(C(F)(F)F)cc2O1 [Example 140, 1-[(4R)-2,2-dimethyl-7-(trifluoromethyl)-3,4-dihydro-2H-chromen-4-yl]-3-[(2S)-7-fluoro-2-hydroxy-2,3-dihydro-1H-inden-4-yl]urea] | 2 | 58 |
| CC1(C)C[C@@H](NC(=O)Nc2ccc(F)c3c2C[C@@H](O)C3)c2cc(F)ccc2O1 [Example 165, 1-[(4R)-6-fluoro-2,2-dimethyl-3,4-dihydro-2H-chromen-4-yl]-3-[(2R)-7-fluoro-2-hydroxy-2,3-dihydro-1H-inden-4-yl]urea] | 49 | 2600 |
| O=C(Nc1ccc(F)c2c1C[C@@H](O)C2)N[C@@H]1CC(CF)(CF)Oc2cc(OC(F)(F)F)ccc21 [Example 159, 1-[(4R)-2,2-bis(fluoromethyl)-7-(trifluoromethoxy)-3,4-dihydro-2H-chromen-4-yl]-3-[(2R)-7-fluoro-2-hydroxy-2,3-dihydro-1H-inden-4-yl]urea] | 36 | 420 |
| C[C@]1(C(F)F)C[C@@H](NC(=O)Nc2cccc3c2C[C@H](O)C3)c2ccc(Cl)cc2O1 [Example 33, 1-[(2R,4R)-7-chloro-2-(difluoromethyl)-2-methyl-3,4-dihydro-2H-chromen-4-yl]-3-[(2R)-2-hydroxy-2,3-dihydro-1H-inden-4-yl]urea] | 51 | 27 |
| O=C(NCC1CCc2cc(C(F)(F)F)ccc2O1)Nc1cccc2c1C[C@H](O)C2 (stereo partly drawn) [Example 26, 1-[(2R)-2-hydroxy-2,3-dihydro-1H-inden-4-yl]-3-{[6-(trifluoromethyl)-3,4-dihydro-2H-chromen-2-yl]methyl}urea] | 66 | 770 |
| CC1(C)C[C@@H](NC(=O)Nc2cccc3c2C[C@@H](O)C3)c2ccccc2O1 [Example 82, 1-[(4R)-2,2-dimethyl-3,4-dihydro-2H-chromen-4-yl]-3-[(2S)-2-hydroxy-2,3-dihydro-1H-inden-4-yl]urea] | 56 | 510 |
| O=C(Nc1cccc2c1C[C@@H](O)C2)N[C@@H]1CC(CF)(CF)Oc2cc(C(F)(F)F)ccc21 [Example 74, 1-[(4R)-2,2-bis(fluoromethyl)-7-(trifluoromethyl)-3,4-dihydro-2H-chromen-4-yl]-3-[(2S)-2-hydroxy-2,3-dihydro-1H-inden-4-yl]urea] | 2 | 14 |
| C[C@]1(CF)C[C@@H](NC(=O)Nc2c(F)ccc3c2CC(O)C3)c2ccc(Cl)cc2O1 (stereo partly drawn) [Example 25, 1-[(2R,4R)-7-chloro-2-(fluoromethyl)-2-methyl-3,4-dihydro-2H-chromen-4-yl]-3-(5-fluoro-2-hydroxy-2,3-dihydro-1H-inden-4-yl)urea] | 30 | 41 |
| CC1(C)C[C@@H](NC(=O)Nc2ccc(F)c3c2C[C@H](O)C3)c2cccc(OC(F)(F)F)c2O1 [Example 154, 1-[(4R)-2,2-dimethyl-8-(trifluoromethoxy)-3,4-dihydro-2H-chromen-4-yl]-3-[(2S)-7-fluoro-2-hydroxy-2,3-dihydro-1H-inden-4-yl]urea] | 3 | 82 |
| CC1(C)C[C@@H](NC(=O)Nc2ccc(F)c3c2C[C@H](O)C3)c2cccc(F)c2O1 [Example 136, 1-[(4R)-8-fluoro-2,2-dimethyl-3,4-dihydro-2H-chromen-4-yl]-3-[(2S)-7-fluoro-2-hydroxy-2,3-dihydro-1H-inden-4-yl]urea] | 5 | 2800 |
| O=C(Nc1cccc2c1CC(O)C2)NC1CC(c2ccc(Cl)cc2)Oc2ccccc21 (stereo not shown) [Example 117, 1-[2-(4-chlorophenyl)-3,4-dihydro-2H-chromen-4-yl]-3-(2-hydroxy-2,3-dihydro-1H-inden-4-yl)urea] | 45 | 130 |
| O=C(Nc1cccc2c1C[C@H](O)C2)N[C@@H]1CC(CF)(CF)Oc2c(F)cc(F)cc21 [Example 1, 1-[(4R)-6,8-difluoro-2,2-bis(fluoromethyl)-3,4-dihydro-2H-chromen-4-yl]-3-[(2R)-2-hydroxy-2,3-dihydro-1H-inden-4-yl]urea] | 61 | 300 |
| O=C(Nc1c(F)ccc2c1C[C@@H](O)C2)N[C@@H]1CC(CF)(CF)Oc2cc(C(F)(F)F)ccc21 [Example 95, 1-[(4R)-2,2-bis(fluoromethyl)-7-(trifluoromethyl)-3,4-dihydro-2H-chromen-4-yl]-3-[(2S)-5-fluoro-2-hydroxy-2,3-dihydro-1H-inden-4-yl]urea] | 46 | 170 |
| CC1(C)Oc2ccc(F)cc2CC1NC(=O)Nc1cccc2c1C[C@H](O)C2 (stereo partly drawn) [Example 91, 1-(6-fluoro-2,2-dimethyl-3,4-dihydro-2H-chromen-3-yl)-3-[(2R)-2-hydroxy-2,3-dihydro-1H-inden-4-yl]urea] | 78 | 82 |
| O=C(Nc1cccc2c1C[C@@H](O)C2)N[C@@H]1CCOc2cc(OC(F)(F)F)ccc21 [Example 37, 1-[(2S)-2-hydroxy-2,3-dihydro-1H-inden-4-yl]-3-[(4R)-7-(trifluoromethoxy)-3,4-dihydro-2H-chromen-4-yl]urea] | 4 | 17 |
| CC1(C)C[C@H](NC(=O)Nc2cccc3c2C[C@@H](O)C3)c2cc(F)ccc2O1 [Example 103, 1-[(4S)-6-fluoro-2,2-dimethyl-3,4-dihydro-2H-chromen-4-yl]-3-[(2S)-2-hydroxy-2,3-dihydro-1H-inden-4-yl]urea] | 99 | 28000 |
| C[C@@]1(C(F)F)C[C@@H](NC(=O)Nc2cccc3c2C[C@H](O)C3)c2ccccc2O1 [Example 126, 1-[(2S,4R)-2-(difluoromethyl)-2-methyl-3,4-dihydro-2H-chromen-4-yl]-3-[(2R)-2-hydroxy-2,3-dihydro-1H-inden-4-yl]urea] | 88 | 1400 |
| CC(C)(C)c1ccc(Nc2ncnc3cc(-c4ncccc4C(F)(F)F)ccc23)cc1 [B, reference compound] | 1 | 55 |
| O=C(Nc1cccc2c1C[C@H](O)C2)N[C@@H]1CC(CF)(CF)Oc2cc(C(F)F)ccc21 [Example 130, 1-[(4R)-7-(difluoromethyl)-2,2-bis(fluoromethyl)-3,4-dihydro-2H-chromen-4-yl]-3-[(2R)-2-hydroxy-2,3-dihydro-1H-inden-4-yl]urea] | 85 | 34000 |
| O=C(Nc1cccc2c1C[C@H](O)C2)N[C@@H]1COc2ccc(Cl)cc2C1 [Example 27, 1-[(3S)-6-chloro-3,4-dihydro-2H-chromen-3-yl]-3-[(2R)-2-hydroxy-2,3-dihydro-1H-inden-4-yl]urea] | 11 | 97 |
| COc1ccc(CC2COc3ccccc3C2NC(=O)Nc2cccc3c2CC(O)C3)cc1OC (stereo not shown) [Example 109, 1-[3-(3,4-dimethoxybenzyl)-3,4-dihydro-2H-chromen-4-yl]-3-(2-hydroxy-2,3-dihydro-1H-inden-4-yl)urea] | 89 | 3100 |
| O=C(Nc1cccc2c1C[C@H](O)C2)N[C@@H]1CC(CF)(CF)Oc2cc(F)ccc21 [Example 129, 1-[(4R)-7-fluoro-2,2-bis(fluoromethyl)-3,4-dihydro-2H-chromen-4-yl]-3-[(2R)-2-hydroxy-2,3-dihydro-1H-inden-4-yl]urea] | 53 | 360 |
